Consider four compounds from patent US7973036B2, “2-methyl-5-imino-benzo[D][1 ,3]oxazin[5-B]pyrazole compound, preparation and use thereof” (Qingdao Huanghai Pharmaceutical Co., Ltd, priority 2008, dated 2011).

Entries after “also recorded” stand apart in the source; their conditions may differ.

Data set [1] in a line: Anti-DPPH free radical test (spectrophotometry at 517 nm). Conditions: for DPPH free radical scavenged by one molecular of compound / DPPH free radical scavenging ability E, one value per sample (mean of the five concentrations) / DPPH free radical scavenging ability V / DPPH free radical scavenging ability, comparison between samples / DPPH free radical scavenging ability E: 30 min. The format is biochemical. The text has this: Anti-DPPH Free Radical Test
2,2-diphenyl-1-picrylhydrazyl (DPPH) free radical spectrophotometry is a simple method for screening antioxidants, the principle of which is using the characteristic absorption peak of DPPH solution at 517 nm. When free radical scavengers existed, single electron pairing between free radical scavenger and DPPH allowed the absorption of DPPH disappeared, and its decoloring degree and accepted electron number present as quantitative relation, and the antioxidant activity of samples can be evaluated through the amount of cleared DPPH, so the spectrophotometry can be used for quantitative analysis.
DPPH was accurately weighed and placed in a volumetric flask, and diluted to 100 ml with 95% ethanol. The absorbance (A) of DPPH was measured at 517 nm.
DPPH standard curve was shown in FIG. 1, the linear equation of which was as follows: y=0.219x−0.0285; r=0.9994.
DPPH was accurately weighed and placed in a 100 ml volumetric flask, and diluted to 100 ml with 95% ethanol to produce the DPPH solution.
Preparation of Test Drug Solution: the Test Drug was Accurately Weighed and Placed in a 100 ml volumetric flask, dissolved with 20 ml of 95% ethanol, adjusted to pH 7.5 and diluted to 100 ml with 95% ethanol.
5.0 ml of DPPH solution and 2.0 ml test drug solution were taken and placed in a 10 ml volumetric flask, fully shaken at room temperature for a certain time followed by determination of absorption value (A) at 517 nm.
Formula for calculating DPPH free radical scavenging ability of test drug, E (mgDPPH/mg):
Formula for calculating DPPH free radical scavenging ability of test drug, V (mmolDPPH/mmol): […]

In data set [2] the test system is cerebral ischemia reperfusion model of middle cerebral artery occlusion (MCAO). In words: Cerebral ischemia reperfusion model of middle cerebral artery occlusion (MCAO), suture method. To be noted: Nimodipine 0.4 mg/kg, X ± SD. The format is in vivo, SD rats. As to the method: Cerebral ischemia reperfusion model of middle cerebral artery occlusion (MCAO) was established in SD rats using the suture method of internal carotid artery. Test rats were administrated once 0.5 hours after ischemia reperfusion, then once every 2 hours, for totally three times. Neurological defect symptoms were observed 48 hours after cerebral ischemia.

Setting [3] is: test drug C 0.152 (Edaravone), 0.153 (Compound 1, 2), 0.159 (Compound 3) mg/100 ml.
Setting [4] is: test drug C 0.304 (Edaravone), 0.305 (Compound 1, 2), 0.318 (Compound 3) mg/100 ml.
The mark [5] stands for this setting: test drug C 0.608 (Edaravone), 0.610 (Compound 1, 2), 0.635 (Compound 3) mg/100 ml.
The mark [6] stands for this setting: test drug C 1.215 (Edaravone), 1.220 (Compound 1, 2), 1.270 (Compound 3) mg/100 ml.
Setting [7] is: test drug C 2.430 (Edaravone), 2.440 (Compound 1, 2), 2.540 (Compound 3) mg/100 ml.

For `Cc1cc(=O)n(-c2ccccc2C#N)[nH]1` [Compound 3, 1-(2-cyanophenyl)-3-methylpyrazol-5-one], the “DPPH free radical scavenged by one molecular of compound” value in data set [1] is reported as 1.942 molecular of DPPH free radical. Further, in data set [1], the “DPPH free radical scavenging ability E, one value per sample (mean of the five concentrations)” value came out at 3.510 mgDPPH/mg. The “DPPH free radical scavenging ability V” value in data set [1] amounted to 1.942 mmolDPPH/mmol. Also, in data set [1], the “DPPH free radical scavenging ability, comparison between samples” value is “the largest; also recorded: slightly stronger than Edaravone”. Besides, the “DPPH free radical scavenging ability E” value in data set [1] (setting [3]) was determined as 3.067 mgDPPH/mg; in data set [1] (setting [4]), 3.215 mgDPPH/mg; in data set [1] (setting [5]) it was 2.770 mgDPPH/mg; in data set [1] (setting [6]), 4.032 mgDPPH/mg; in data set [1] (setting [7]) it was 4.464 mgDPPH/mg.

In the case of “2-methyl-benzo[d][1,3]oxazin[5-b]pyrazole-5-one [Compound 1]”, the “DPPH free radical scavenging ability with the reaction time” value in data set [1] (30-150 min) is reported as “gradually increased”. Moreover, in data set [1] (95% ethanol, pH 7.5, room temperature, 30-150 min), the “Hydrolysis in the reaction liquid with the reaction time” value is listed as “gradually hydrolyzed into Compound 3”. Also, the “DPPH free radical scavenging ability E, one value per sample (mean of the five concentrations)” value in data set [1] came out at 1.687 mgDPPH/mg. In addition, the “DPPH free radical scavenging ability V” value in data set [1] stood at 0.856 mmolDPPH/mmol. In data set [1], the “DPPH free radical scavenging ability, comparison between samples” value is on record as “one-eighth of Compound 3”. In addition, the “DPPH free radical scavenging ability E” value in data set [1] (setting [3]) came to 1.650 mgDPPH/mg; in data set [1] (setting [4]), 1.481 mgDPPH/mg; in data set [1] (setting [5]), 1.252 mgDPPH/mg; in data set [1] (setting [6]), 2.262 mgDPPH/mg; in data set [1] (setting [7]), 1.792 mgDPPH/mg. Further, the “DPPH free radical scavenging ability, comparison with Compound 3” value in data set [1] (at 150 min) is “equivalent with Compound 3”.

For the compound `CC1=NN(c2ccccc2)C(=O)C1` [Edaravone, edaravone, reference compound], the “DPPH free radical scavenged by one molecular of compound” value in data set [1] was 1.657 molecular of DPPH free radical. Also, the “DPPH free radical scavenging ability E, one value per sample (mean of the five concentrations)” value in data set [1] turned out to be 3.752 mgDPPH/mg. In data set [1], the “DPPH free radical scavenging ability V” value is listed as 1.657 mmolDPPH/mmol. In addition, the “DPPH free radical scavenging ability E” value in data set [1] (setting [3]) turned out to be 3.222 mgDPPH/mg; in data set [1] (setting [4]), 3.195 mgDPPH/mg; in data set [1] (setting [5]), 3.322 mgDPPH/mg; in data set [1] (setting [6]), 4.785 mgDPPH/mg; in data set [1] (setting [7]), 4.237 mgDPPH/mg.

For the compound `COCCOC(=O)C1=C(C)NC(C)=C(C(=O)OC(C)C)C1c1cccc([N+](=O)[O-])c1` (centres unmarked) [Nimodipine, nimodipine, reference compound], in data set [2] (n=7), the “Variation value of water content in brain (%)” value is 1.6 ± 0.59 %, the “brain tissue MDA content” value is 7.6 ± 1.28 nmol/mgprot and the “brain tissue SOD activity” value worked out at 114.8 ± 16.4 U/mgprot. For the same compound, the “Scores of neurological defect symptoms” value in data set [2] (Table 4 series, three administrations, 48 hours after cerebral ischemia, n=10) was found to be 1.2 ± 0.41. The “Cerebral infarction area (%)” value in data set [2] (Table 5, three administrations, n=10) was 6.7 ± 6.30^#& %. For the same compound, in data set [2] (Table 6, brain injury, three administrations, n=10), the “Cerebral infarction area (%) (table title: brain injury)” value is 12.8 ± 12.09^#& %. Also, the “Scores of neurological defect symptoms” value in data set [2] (Table 7 series, n=7) is recorded as 1.3 ± 0.86.
